# Measurements as given in publication PMC8779298, “The Campylobacter jejuni Response Regulator and Cyclic-Di-GMP Binding CbrR Is a Novel Regulator of Flagellar Motility” (Microorganisms, 2021).
# Assays:
# CbrR [1] = test system: T1, CbrR; conditions: labelled compound (32P); 10 mM Tris pH 8.0, 5 mM MgCl2, 100 mM NaCl; active-site mutant
# T1 construct: gene CJJ81176_0671
# Target sequence in this assay (A0A0H3PJ41 whole entry E334A): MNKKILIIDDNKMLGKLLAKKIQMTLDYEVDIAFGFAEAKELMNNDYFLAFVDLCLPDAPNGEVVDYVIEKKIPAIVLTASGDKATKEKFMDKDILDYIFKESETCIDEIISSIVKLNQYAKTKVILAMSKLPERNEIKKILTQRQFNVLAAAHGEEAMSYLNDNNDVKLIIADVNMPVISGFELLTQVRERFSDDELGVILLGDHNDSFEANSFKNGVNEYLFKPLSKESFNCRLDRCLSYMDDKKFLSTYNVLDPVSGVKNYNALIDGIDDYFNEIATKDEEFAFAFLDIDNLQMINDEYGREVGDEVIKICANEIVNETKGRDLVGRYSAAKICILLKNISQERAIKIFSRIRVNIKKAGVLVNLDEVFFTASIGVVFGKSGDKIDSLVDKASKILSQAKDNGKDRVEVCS
# CbrR [2] = test system: T1, CbrR; conditions: labelled compound (32P); 10 mM Tris pH 8.0, 5 mM MgCl2, 100 mM NaCl; I-site mutant
# Target sequence in this assay (A0A0H3PJ41 whole entry K323A/G324A/R325A/D326A): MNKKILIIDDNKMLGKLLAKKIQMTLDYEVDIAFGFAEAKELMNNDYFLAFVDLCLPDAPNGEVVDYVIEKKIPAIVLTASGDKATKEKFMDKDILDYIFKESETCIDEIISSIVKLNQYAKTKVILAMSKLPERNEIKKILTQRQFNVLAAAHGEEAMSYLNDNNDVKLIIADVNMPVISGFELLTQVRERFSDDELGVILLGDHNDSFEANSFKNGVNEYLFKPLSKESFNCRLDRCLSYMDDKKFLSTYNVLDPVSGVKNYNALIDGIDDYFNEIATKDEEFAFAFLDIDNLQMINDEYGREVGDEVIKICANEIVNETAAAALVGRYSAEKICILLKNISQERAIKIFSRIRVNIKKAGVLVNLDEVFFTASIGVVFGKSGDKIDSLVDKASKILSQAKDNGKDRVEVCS
Structure (SMILES),"DRaCALA, nitrocellulose spot (CbrR [1])",binding (CbrR [2])
Nc1nc2c(ncn2[C@@H]2O[C@@H]3COP(=O)(O)O[C@H]4[C@@H](O)[C@H](n5cnc6c(=O)[nH]c(N)nc65)O[C@@H]4COP(=O)(O)O[C@H]3[C@H]2O)c(=O)[nH]1 [c-di-GMP],did not affect binding of either GTP or c-di-GMP,substitution of the I-site in the protein led to the loss of c-di-GMP binding
Nc1nc2c(ncn2[C@@H]2O[C@H](COP(=O)(O)OP(=O)(O)OP(=O)(O)O)[C@@H](O)[C@H]2O)c(=O)[nH]1 [GTP],did not affect binding of either GTP or c-di-GMP,–
